Earlier results on two molecules are cited in patent US11229230B2, “Antioxidant-enriched multivitamin composition and methods of use” (Callion Pharma, LLC, priority 2016, dated 2022).

Data set [1] deals with cystic fibrosis. To be noted: oral treatment, Phase II clinical study.
Data set [2] has as its system cystic fibrosis patients. To be noted: inhaled.

Regarding `CC(=O)N[C@@H](CS)C(=O)O` [N-acetylcysteine], the lung function entry in data set [1] is recorded as “did not improve lung function”.
On to `N[C@@H](CCC(=O)N[C@@H](CS)C(=O)NCC(=O)O)C(=O)O` [glutathione], for which the “effectiveness in cystic fibrosis” value in data set [2] was “has not been effective”.
